Reference: PMC4669708 (Cell Death & Disease, 2015)
Where two headings read alike, the source gives them in different places.

Experiments:
[1] = tested on: FADD-deficient Jurkat cells; assay: TNF-α-induced necroptosis, cell viability (CellTiter Glo); format: cell-based, human; conditions: 10 ng/ml TNF-α overnight
Method: (§1) Cells were seeded in 12-, 24- or 96-well plates at proper cell density. For necroptosis or apoptosis assays, cells were incubated with the indicated compound combinations at concentrations stated for 14–24 h. Smac mimetic and z-VAD-FMK were added 30–60 min before treatment with TNF-α, FasL or TRAIL. Cell viability was determined using CellTiter Glo Luminescent Cell Viability Assay (Promega, Fitchburg, WI, USA) according to the manufacturer's instructions. Luminescence was recorded with a SpectraMax M5Multimode plate reader (Molecular Devices, Sunnyvale, CA, USA). For flow cytometry-based determination of viability, cells were harvested, collected by centrifugation, washed once and resuspended in staining buffer (1 × PBS, 10% FBS). Cells were incubated with 0.5 μg/ml PI for 10 min at room temperature (RT) in the dark. Flow cytometric analyses were performed on an LSR Fortessa (BD Biosciences) and analyzed with FlowJo software version 7.6.3 (Tree Star Inc, Ashland, OR, USA). Cell size was evaluated by forward scatter. PI-negative normal-sized cells were considered living and data were normalized to values of untreated controls.
The compounds were transferred into drug plates by acoustic droplet ejection using an Echo 520 liquid handler (LABCYTE, Sunnyvale, CA, USA). Necroptosis was induced in FADD-deficient Jurkat cells by addition of 10 ng/ml TNF-α immediately before seeding onto drug plates at a density of 1x10^4 cells/well. After 16 h incubation, cell viability was determined using CellTiter Glo Luminescent Cell Viability Assay according to manufacturer's instructions. Data analysis was performed by calculating a percentage of control to normalize for variability across different plates. The signal for the negative control DMSO wells was set to 0%, whereas the wells containing the positive control Nec-1 were put to 100% for each plate individually.

HT-29 cells = assay: Drug toxicity, cell viability 24 h; format: cell-based; conditions: Homo sapiens, HT-29, 24 h
Method: as §1

RIPK3 = RIPK3 (Homo sapiens, UniProt Q9Y572); assay: Recombinant kinase assay; format: biochemical; set-up: purchased Signalchem R09-10G
Method: Recombinant RIPK1 or RIPK3 protein was incubated with the substrate MBP in kinase assay buffer (40 mM Tris-HCl pH 7.5, 10 mM MgCl2 and 1 mM DTT) in presence of 50 μM ATP, 5 μCi [γ-32 P]ATP and the indicated inhibitors in a total volume of 20 μl. […] The terminated reactions were spotted onto a SAM2 Biotin Capture membrane (Promega) and further processed according to the manufacturer's instructions. […] Data were normalized to a DMSO-treated control sample. For autoradiography, the reactions were stopped by addition of 5 μl 4x Laemmli buffer and incubated for 5 min at 95 °C.

[2] = Chemical proteomics, c-ponatinib drug pull-down, LCMS-MS; format: binding, human; conditions: c-ponatinib matrix, competition with free ponatinib; cells 2 h TNF-α
Method: Drug-affinity matrices were prepared as described previously.[51] In brief, 25 nmol of c-ponatinib were immobilized on 50 μl NHS-activated Sepharose 4 Fast Flow beads (GE Healthcare Bio-Sciences AB, Uppsala, Sweden). 10 mg whole cell lysate was used as protein input per replicate. Affinity chromatography and elution were performed in duplicate. After elution, the enriched proteins were reduced with dithiothreitol (DTT) and cysteine residues were alkylated by incubation with iodoacetamide. The samples were digested with modified porcine trypsin (Promega). Five percent of the digested eluates were purified and concentrated by C18 reversed-phase material. Subsequently, samples were analyzed in duplicates by gel-free one-dimensional LCMS.
Precursor and MS/MS peaks were extracted from the RAW files and saved in the MGF format using msconvert tool (ProteoWizard Library v2.1.2708, www.proteowizard.sourceforge.net) for subsequent protein identification. […] The initial peptide identifications were used to deduce independent linear transformations for precursor and fragment masses that would minimize the mean square deviation of measured masses from theoretical. […] A false discovery rate of <1% for protein identifications and <0.1% for peptides (including the ones exported with lower scores) was determined by applying the same procedure against a database of reversed protein sequences. […]

Sequence of RIPK3 (Q9Y572 whole entry): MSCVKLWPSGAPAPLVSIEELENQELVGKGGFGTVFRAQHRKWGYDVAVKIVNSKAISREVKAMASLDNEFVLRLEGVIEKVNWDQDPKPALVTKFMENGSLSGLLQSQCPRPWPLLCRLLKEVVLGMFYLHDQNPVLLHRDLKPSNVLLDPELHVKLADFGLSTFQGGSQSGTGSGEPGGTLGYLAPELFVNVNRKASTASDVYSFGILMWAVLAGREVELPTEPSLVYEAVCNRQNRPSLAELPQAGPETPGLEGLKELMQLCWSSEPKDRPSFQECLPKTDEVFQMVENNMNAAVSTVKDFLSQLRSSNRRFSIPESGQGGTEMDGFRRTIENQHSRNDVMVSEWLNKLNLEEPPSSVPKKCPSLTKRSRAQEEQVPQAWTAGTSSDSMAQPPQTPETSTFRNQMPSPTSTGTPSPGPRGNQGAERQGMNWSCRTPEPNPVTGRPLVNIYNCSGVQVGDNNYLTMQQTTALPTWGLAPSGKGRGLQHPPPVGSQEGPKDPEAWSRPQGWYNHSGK

Cc1ccc(C(=O)Nc2ccc(CN3CCN(CCCN)CC3)c(C(F)(F)F)c2)cc1C#Cc1cnc2cccnn12 [c-ponatinib]
block of necroptosis compared with ponatinib ([1]; Figure 3b): blocked necroptosis with only a minor reduction in potency

Cc1ccc(C(=O)Nc2ccc(CN3CCN(C)CC3)c(C(F)(F)F)c2)cc1C#Cc1cnc2cccnn12 [ponatinib, Ponatinib]
rescue of cell viability in drug screen ([1]; 0.5 and 1.5 μM): robustly rescued cell viability at both concentrations | EC50 ([1]; Homo sapiens, Jurkat, CellTiter Glo, read-out: EC50 for inhibiting necroptosis): 0.089 µM | IC50 (HT-29 cells; read-out: IC50 (printed in Figure 2e)): 8.89 µM | IC50 (HT-29 cells; read-out: IC50 (toxicity)): 8.9 µM | RIPK3 kinase activity (MBP phosphorylation) (RIPK3; 50 μM ATP, Figure 4e inhibitors at 10 μM): strongly blocked phosphorylation | RIPK3 autophosphorylation (RIPK3; autoradiography, Supplementary Figure 4c): efficiently blocked | kinases identified as specific binders (number) [2]: 38 | non-kinase proteins identified as specific binders (number) [2]: 22
